Measurements from the supplement of paper PMC10307832.

Tests used:
Test in all cases: relative viability (nuclei count vs DMSO), 5 days (fraction); higher = more cells survive
[1] = compound: CC1CC(=O)N(C2=CN=C(N=C2N1C3CCCC3)NC4=C(C=C(C=C4)C(=O)NC5CCN(CC5)C)OC)C [NPK76-II-72-1] + CS(=O)(=O)CCNCc1ccc(-c2ccc3ncnc(Nc4ccc(OCc5cccc(F)c5)c(Cl)c4)c3c2)o1 [Lapatinib] (partner 2 µM)
Summary of the method: (§1)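 Nuclei were stained with Hoechst during a one-step fixation (final 0.05% Triton X-100, 1% formaldehyde, 1 ug/ml Hoechst) carried out 5 days after dosing, then counted on 4× images. The cells, lung cancer lines in 1536-well plates, had been dosed by pin tool the day after seeding with one drug alone or a fixed anchor-drug dose plus five library-drug doses (not always all listed) in √10 steps. Relative viability is the nuclei count in treated wells divided by that in vehicle wells, and each value is the median of duplicate plates.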

NPK76-II-72-1 + Olaparib = compound: CC1CC(=O)N(C2=CN=C(N=C2N1C3CCCC3)NC4=C(C=C(C=C4)C(=O)NC5CCN(CC5)C)OC)C [NPK76-II-72-1] + O=C(c1cc(Cc2n[nH]c(=O)c3ccccc23)ccc1F)N1CCN(C(=O)C2CC2)CC1 [Olaparib] (partner 8 µM)
Summary of the method: as §1

BI-2536 + Tozasertib = compound: CC[C@@H]1C(=O)N(C)c2cnc(Nc3ccc(C(=O)NC4CCN(C)CC4)cc3OC)nc2N1C1CCCC1 [BI-2536] + Cc1cc(Nc2cc(N3CCN(C)CC3)nc(Sc3ccc(NC(=O)C4CC4)cc3)n2)n[nH]1 [Tozasertib] (partner 0.1 µM)
Summary of the method: as §1

BI-2536 + Decitabine = compound: CC[C@@H]1C(=O)N(C)c2cnc(Nc3ccc(C(=O)NC4CCN(C)CC4)cc3OC)nc2N1C1CCCC1 [BI-2536] + Nc1ncn([C@H]2C[C@H](O)[C@@H](CO)O2)c(=O)n1 [Decitabine] (partner 2 µM)
Summary of the method: as §1

Cell Line | relative viability ([1]; first compound 0.01 µM) | relative viability ([1]; first compound 0.03162 µM) | relative viability ([1]; first compound 0.3162 µM) | relative viability ([1]; first compound 1 µM) | relative viability (NPK76-II-72-1 + Olaparib; first compound 0.01 µM) | relative viability (NPK76-II-72-1 + Olaparib; first compound 0.03162 µM) | relative viability (NPK76-II-72-1 + Olaparib; first compound 0.1 µM) | relative viability (NPK76-II-72-1 + Olaparib; first compound 0.3162 µM) | relative viability (NPK76-II-72-1 + Olaparib; first compound 1 µM) | relative viability (BI-2536 + Tozasertib; first compound 0.01 µM) | relative viability (BI-2536 + Tozasertib; first compound 0.03162 µM) | relative viability (BI-2536 + Tozasertib; first compound 0.1 µM) | relative viability (BI-2536 + Tozasertib; first compound 0.3162 µM) | relative viability (BI-2536 + Tozasertib; first compound 1 µM) | relative viability (BI-2536 + Decitabine; first compound 0.01 µM) | relative viability (BI-2536 + Decitabine; first compound 0.03162 µM) | relative viability (BI-2536 + Decitabine; first compound 0.1 µM) | relative viability (BI-2536 + Decitabine; first compound 0.3162 µM) | relative viability (BI-2536 + Decitabine; first compound 1 µM) | relative viability ([1]; first compound 0.1 µM)
NCI-H23 | 1.03 | 1.27 | 1.12 | 0.985 | 0.228 | 0.29 | 0.316 | 0.255 | 0.354 | 0.331 | 0.458 | 0.182 | 0.142 | 0.141 | 0.3 | 0.364 | 0.244 | 0.155 | 0.168 | –
NCI-H322M | 0.515 | 0.636 | 0.612 | 0.557 | 0.582 | 0.828 | 0.623 | 0.878 | 0.791 | 0.517 | 0.451 | 0.571 | 0.445 | 0.377 | 0.69 | 0.64 | 0.649 | 0.462 | 0.451 | 0.597
NCI-H358 | 0.444 | 0.443 | 0.453 | 0.477 | 0.58 | 0.665 | 0.598 | – | 0.686 | 0.113 | 0.105 | 0.103 | 0.0917 | 0.0924 | 0.204 | 0.187 | 0.0935 | 0.0948 | 0.112 | 0.549
NCI-H460 | 0.887 | 0.948 | 1.02 | 0.966 | 0.441 | 0.457 | 0.514 | 0.426 | 0.455 | 0.367 | 0.477 | 0.336 | 0.0323 | 0.0403 | 0.596 | 0.486 | 0.114 | 0.0205 | 0.0215 | 1.21
NCI-H520 | 0.735 | 0.85 | 0.857 | 0.841 | 0.294 | 0.351 | 0.268 | 0.385 | 0.343 | 0.429 | 0.424 | 0.365 | 0.395 | 0.361 | 0.538 | 0.393 | 0.226 | 0.195 | 0.209 | 0.912
NCI-H596 | 1 | 1.14 | 0.914 | 1.09 | 0.771 | 0.748 | 0.68 | 0.704 | 0.67 | 0.913 | 1.12 | 0.769 | 0.267 | 0.247 | 1.07 | 1.25 | 0.996 | 0.611 | 0.417 | 1.07
NCI-H647 | 0.932 | 1.01 | 0.916 | 1.01 | 0.633 | 0.48 | 0.755 | 0.46 | 0.661 | 0.34 | 0.433 | 0.209 | 0.132 | 0.103 | 0.391 | 0.301 | 0.103 | 0.0938 | 0.135 | –
